Data taken from patent US20240023806A1, “METHOD FOR SELF-DIAGNOSIS AND METHOD FOR SELF-TREATMENT OF POSTERIOR SEGMENT EYE DISEASE” (priority 2022, published 2024).

Assays:
[1] = system: inflammatory vitreous opacity due to endotoxin-induced uveitis; assay: Endotoxin-induced uveitis (EIU) rabbit model: clinical grading of inflammatory vitreous opacity after DEX injection into the choroid through a tube; assay type: in vivo; conditions: day 2 after intravitreal LPS 100 ng; DEX solution 100 μg/100 μL injected into the choroid through the tube; 4 eyes; p<0.05 vs control (LPS only)
Protocol: (§1) In order to investigate the effectiveness of the method for self-treatment of posterior segment eye disease according to an aspect of the present invention, whether the injection of dexamethasone (DEX) into the choroid through a tube suppresses inflammatory vitreous opacity due to endotoxin-induced uveitis was examined in a rabbit model.
All experiments were conducted in accordance with ARVO Statement for the Use of Animals in Ophthalmic and Vision Research and the Guidelines for Experimental Animals at Iwate Medical University. Three-month-old Japanese white rabbits (purchased from KITAYAMALABES CO., LTD.) weighing 2 to 2.5 kg were used. […]
After the tube insertion, endotoxin-induced uveitis (HU) was induced in 8 rabbits (8 eyes) by lipopolysaccharide (LPS) derived from Escherichia coli (manufactured by Sigma-Aldrich Co. LLC). […] Since maximal inflammatory symptoms were seen 2 days after injection, inflammatory vitreous opacity was evaluated 2 days after injection by ophthalmological observation and vitreous humor protein measurement. The amount of DEX injected was entered into the application and the amount of DEX was determined on the computer. The data on the quantity of DEX was then transmitted to a wireless injector (“Tofuty”, manufactured by ICOMES LAB Co., Ltd.). […]

[2] = system: inflammatory vitreous opacity due to endotoxin-induced uveitis; assay: Endotoxin-induced uveitis (EIU) rabbit model: vitreous humor protein measurement; assay type: in vivo; conditions: day 2 after intravitreal LPS 100 ng; DEX solution 100 μg/100 μL injected into the choroid through the tube; 4 eyes; p<0.05 vs control (LPS only)
Excerpt: as §1
After the tube insertion, endotoxin-induced uveitis (HU) was induced in 8 rabbits (8 eyes) by lipopolysaccharide (LPS) derived from Escherichia coli (manufactured by Sigma-Aldrich Co. LLC). 100 ng of LPS solution was injected into the vitreous body using a 27G needle at a 12 o'clock position, 3 mm posterior to the corneal limbus. […] Since maximal inflammatory symptoms were seen 2 days after injection, inflammatory vitreous opacity was evaluated 2 days after injection by ophthalmological observation and vitreous humor protein measurement. The amount of DEX injected was entered into the application and the amount of DEX was determined on the computer. The data on the quantity of DEX was then transmitted to a wireless injector (“Tofuty”, manufactured by ICOMES LAB Co., Ltd.). […]
For protein measurements, four eyes in each group were used on day 2 after procedure. […] The protein content of vitreous humor was determined using a Bio-Rad assay kit with bovine serum albumin as a standard-dilution reference curve. […]

SMILES: C[C@@H]1C[C@H]2[C@@H]3CCC4=CC(=O)C=C[C@]4(C)[C@@]3(F)[C@@H](O)C[C@]2(C)[C@@]1(O)C(=O)CO [DEX, dexamethasone]
- Clinical grading of vitreous opacity (grade 0 to 4) [1]: 0.75±0.96
- Protein concentration in vitreous humor [2]: 20.5 ± 15.0 mg/mL
